pIC50: −log10 of the molar value. Where two headings read alike, the source gives them in different places.

In assay [1] the test system is HT1080 cells. Description: Cell proliferation assay, single agents and combinations, HT1080. It is filed as cell-based. The settings on record: Homo sapiens; HT-1080 cells; read-out: IC50 as a single agent. How it is done:
(§1) Cell Proliferation and Cell Death Assays:
(§2) HT1080 cells (or other cell types) were plated in 96-well format at cell densities suitable for culture from 24-72 hrs. For IC50 of cellular proliferation, cells were fixed with TCA and stained with SRB to quantify relative viability. At the end of the specified assay time, the percentage of drug-treated cells was calculated relative to the DMSO control. For cell death assays, viability was assessed relative to the 0-hour timepoint

Assay [2] concerns HT1080 cells. It is filed as cell-based. How it is done: as §1, §2
Assay [3] relates to glycolysis in HT1080 cells. Description: Glycolysis assay: oligomycin plus compound, cellular ATP by Cell Titer Glo. The settings on record: one hour; for pIC50: Homo sapiens, HT-1080, 1 h, 10 μM oligomycin, class symbols. It is filed as cell-based. The procedure, abridged:
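Confluent HT1080 cells treated 1 h with compound plus 10 μM oligomycin to block mitochondrial ATP, so remaining ATP reflects glycolysis. Cellular ATP read by Cell Titer-Glo luminescence; IC50 derived from dose-response curves.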

The subject of assay [4] is Jurkat. The assay is described as follows: Proliferation assay, Jurkat. It is filed as cell-based. Conditions: Homo sapiens, 72 hrs. As to the method:
(§3) As previously discussed, glucose is the major energy source for cancer cells and, compared to normal cells, cancer cells rely on increased rates of glycolysis for survival and cell growth. […] Table 2 summarizes these findings for multiple compounds:
as §1, §2

Assay [5] has as its system MOLT-4. Description: Proliferation assay, MOLT-4. It is filed as cell-based. Conditions: Homo sapiens, 72 hrs. As to the method:
as §3, §1, §2

Assay [6] deals with U937. The assay is described as follows: Proliferation assay, U937. It is filed as cell-based. Conditions: Homo sapiens, U-937; 72 hrs. How it is done:
as §3, §1, §2

Assay [7] relates to MOG-induced experimental autoimmune encephalitis (EAE). The assay is described as follows: Mouse prophylactic MOG-EAE model. The settings on record: dosed orally day 3 to day 25, compared to vehicle control (FIG. 9). It is filed as in vivo. How it is done:
Mouse Prophylactic MOG-EAE Model:
Performed at Hooke laboratories. Briefly, mice were immunized with MOG peptide on day 0 and subsequently injected with pertussis toxin. Compounds were dosed orally beginning on day 3 continuing until day 25.

Setting [8] is: HT1080 cells, 10 μM Ex. 31 or 25 μM H2O2.

Turning to `CN(C)CC[C@H](CSc1ccccc1)Nc1ccc(S(=O)(=O)NC(=O)c2ccc(N3CCN(Cc4ccccc4-c4ccc(Cl)cc4)CC3)cc2)cc1[N+](=O)[O-]` [ABT-737, reference compound], the pIC50 in assay [1] was about 5.07. For the same molecule, the “cell death as single agents” value in assay [2] (HT-1080 cells) is recorded as “neither Ex. 31 nor ABT-737 (10 M) caused cell death”.
For the molecule `CC(C)NC(=O)COc1cccc(-c2nc3c(c(Nc4ccc(-c5cn[nH]c5)cc4)n2)COC3)c1` [Example 1, 2-(3-(4-((4-(1H-pyrazol-4-yl)phenyl)amino)-5,7-dihydrofuro[3,4-d]pyrimidin-2-yl)phenoxy)-N-isopropylacetamide], the pIC50 was 7.00 to 8.00 in assay [3], 6.20 in assay [4] and 5.79 in assay [5].
For the molecule `CC(C)NC(=O)COc1cccc(-c2nc(Nc3ccc(-c4cn[nH]c4)cc3)c3ncn(C)c3n2)c1` [Example 5, 2-(3-(6-((4-(1H-pyrazol-4-yl)phenyl)amino)-9-methyl-9H-purin-2-yl)phenoxy)-N-isopropylacetamide], the pIC50 in assay [3] was 6.30 to 6.60; in assay [4] it was 6.40.
Turning to `CC(C)NC(=O)COc1cccc(-c2nc(Nc3ccc(-c4cn[nH]c4)cc3)c3sccc3n2)c1` [Example 7, 2-(3-(4-((4-(1H-pyrazol-4-yl)phenyl)amino)thieno[3,2-d]pyrimidin-2-yl)phenoxy)-N-isopropylacetamide], the pIC50 was 7.00 to 8.00 in assay [3], 6.30 in assay [4], 6.08 in assay [5] and 6.41 in assay [6]. In assay [7], the “onset and end clinical score” value is “either delayed the onset or lowered the end clinical score”.
As for `O=C(COc1cccc(-c2nc(Nc3ccc(-c4cn[nH]c4)cc3)c3occc3n2)c1)NC1CC1` [Example 21], the pIC50 is 6.00 to 6.30 in assay [3] and 5.03 in assay [4].
`O=C(COc1cccc(-c2nc(Nc3ccc(-c4cn[nH]c4)cc3)c3sccc3n2)c1)NC1CCC1` [Example 23]: the pIC50 in assay [3] is 6.60 to 7.00; in assay [4], 6.79.
`O=C(COc1cccc(-c2nc(Nc3ccc(-c4cn[nH]c4)cc3)c3sccc3n2)c1)NC1CCCC1` [Example 24]: the pIC50 is 7.00 to 8.00 in assay [3], 6.67 in assay [4], 6.38 in assay [5] and 6.63 in assay [6].
On to `O=C(COc1cccc(-c2nc3c(c(Nc4ccc(-c5cn[nH]c5)cc4)n2)COC3)c1)NC1CCC1` [Example 31], for which the pIC50 in assay [3] is 7.00 to 8.00; in assay [4], 6.53; in assay [5], 6.41; in assay [6], 6.59. In assay [2] (HT1080 cells, 10 μM Ex. 31 + 25 μM H2O2 (FIG. 5B)), the “cell death, combination with H2O2” value is about 45%. Further, the “cell death as single agents” value in assay [2] (setting [8]) is “neither 10 μM Ex. 31 nor 25 μM H2O2 caused cell death”; in assay [2] (HT-1080 cells), “neither Ex. 31 nor ABT-737 (10 M) caused cell death”. The “cell death, combination with ABT-737” value in assay [2] (HT-1080 cells, 72 hours, Ex. 31 + ABT-737 (FIG. 4B)) is about 60%.
With `O=C(COc1cccc(-c2nc3c(c(Nc4ccc(-c5cn[nH]c5)cc4)n2)COC3)c1)NC1CCCC1` [Example 32], the negative logarithm of the IC50 (pIC50) is 7.00 to 8.00 in assay [3], 6.77 in assay [4], 6.58 in assay [5] and 6.91 in assay [6].
As for `CC(C)NC(=O)COc1cncc(-c2nc(Nc3ccc(-c4cn[nH]c4)cc3)c3ccsc3n2)c1` [Example 182, 2-((5-(4-((4-(1H-pyrazol-4-yl)phenyl)amino)thieno[2,3-d]pyrimidin-2-yl)pyridin-3-yl)oxy)-N-isopropylacetamide], the pIC50 in assay [3] is under 6.00.
Regarding `CN1CCN(CC(=O)Nc2cccc(-c3nc(Nc4ccc(-c5cn[nH]c5)cc4)c4sccc4n3)c2)CC1` [Example 183, N-(3-(4-((4-(1H-pyrazol-4-yl)phenyl)amino)thieno[3,2-d]pyrimidin-2-yl)phenyl)-2-(4-methylpiperazin-1-yl)acetamide], the negative-log IC50 (pIC50) in assay [3] is 6.00 to 6.30.
On to `CN1CCN(CC(=O)Nc2cccc(-c3nc(Nc4ccc(-c5cn[nH]c5)cc4)c4occc4n3)c2)CC1` [Example 184, N-(3-(4-((4-(1H-pyrazol-4-yl)phenyl)amino)furo[3,2-d]pyrimidin-2-yl)phenyl)-2-(4-methylpiperazin-1-yl)acetamide], for which the pIC50 in assay [3] is 6.00 to 6.30.
For the molecule `CC(C)NC(=O)C(C)Oc1cccc(-c2nc3c(c(Nc4ccc(-c5cn[nH]c5)cc4)n2)COC3)c1` (stereo not drawn) [Example 185, 2-(3-(4-((4-(1H-pyrazol-4-yl)phenyl)amino)-5,7-dihydrofuro[3,4-d]pyrimidin-2-yl)phenoxy)-N-isopropylpropanamide], in assay [3], the negative logarithm of the IC50 (pIC50) was under 6.00.
Turning to `CC(C)CNC(=O)C(C)Oc1cccc(-c2nc3c(c(Nc4ccc(-c5cn[nH]c5)cc4)n2)COC3)c1` (stereo not drawn) [Example 186, 2-(3-(4-((4-(1H-pyrazol-4-yl)phenyl)amino)-5,7-dihydrofuro[3,4-d]pyrimidin-2-yl)phenoxy)-N-isobutylpropanamide], the negative-log IC50 (pIC50) in assay [3] was under 6.00.
Same read-out and setting: to `CCC(C)NC(=O)C(C)Oc1cccc(-c2nc3c(c(Nc4ccc(-c5cn[nH]c5)cc4)n2)COC3)c1` (stereo not drawn) [Example 187, 2-(3-(4-((4-(1H-pyrazol-4-yl)phenyl)amino)-5,7-dihydrofuro[3,4-d]pyrimidin-2-yl)phenoxy)-N-(sec-butyl)propanamide] belongs under 6.00; to `CC(Oc1cccc(-c2nc3c(c(Nc4ccc(-c5cn[nH]c5)cc4)n2)COC3)c1)C(=O)NC(C)(C)C` (stereo not drawn) [Example 188, 2-(3-(4-((4-(1H-pyrazol-4-yl)phenyl)amino)-5,7-dihydrofuro[3,4-d]pyrimidin-2-yl)phenoxy)-N-(tert-butyl)propanamide], under 6.00.
For `CC(Oc1cccc(-c2nc3c(c(Nc4ccc(-c5cn[nH]c5)cc4)n2)COC3)c1)C(=O)NCC(C)(C)C` (stereo not drawn) [Example 189, 2-(3-(4-((4-(1H-pyrazol-4-yl)phenyl)amino)-5,7-dihydrofuro[3,4-d]pyrimidin-2-yl)phenoxy)-N-neopentylpropanamide], in assay [3], the pIC50 was 6.30 to 6.60.
With `OO` [Example H2O2, H2O2, reference compound], the “cell death as single agents” value in assay [2] (setting [8]) is “neither 10 μM Ex. 31 nor 25 μM H2O2 caused cell death”.
On to `CC[C@H]1/C=C/C=C/C[C@@H](C)[C@H](O)[C@@](C)(O)C(=O)[C@@H](C)[C@H](O)[C@@H](C)C(=O)[C@@H](C)[C@H](O)[C@@H](C)/C=C/C(=O)O[C@@H]2[C@H](C)[C@H](CC1)O[C@]1(CC[C@H](C)[C@H](C[C@@H](C)O)O1)[C@H]2C` [oligomycin, Oligomycin, reference compound], for which the “cellular ATP levels, agent alone” value in assay [3] (alone) was “neither oligomycin alone nor control GLUT1 inhibitors substantially decrease cellular ATP levels”.

These data come from patent US10273248B2, “Glucose uptake inhibitors” (Kadmon Corporation LLC, priority 2015, dated 2019).
